Here are results for 1 substance from patent EP1073452B1, “USE OF […] TREATING CYTOKINE MEDIATED HEPATIC INJURY” (University of Kentucky Research Foundation, priority 1998, dated 2003).

The test system of this experiment is Male BALB/c HSD mice. As to the kind of experiment: Survival of mice rendered hepatotoxic by LPS/GAL treatment (model for septic shock / hepatic failure). It is filed as in vivo. Here is the method:
Hepatic failure was induced in mice by intraperitoneal injections of a mixture of lipopolysaccharide (LPS) (100 µg/kg) and D-galactosamine (GAL) (700 mg/kg) to form LPS/GAL. LPS is a bacterial endotoxin that is a major stimulus for production of many cytokines, particularly tumor necrosis factor (TNF), thought to be involved in liver injury. GAL is an amino sugar that sensitizes hepatocytes by depleting the base uridine and thus preventing hepatic transcription, and sensitizes animals to normally innocuous amounts of endotoxin or TNF. The LPS/GAL treatment induces fulminate hepatic and multiorgan failure, and serves as a model for septic shock. The major effects of LPS/GAL are elicited by the inflammatory cytokine TNF-α. Hepatocytes sensitized to TNF-α then undergo apoptosis or programmed cell death in response to inflammatory processes.
Mice were treated with deltorphin and were subsequently rendered hepatotoxic by LPS/GAL treatment. An emulsion of deltorphin I SEQ ID NO:1 (Tyr-D-Ala-Phe-Asp-Val-Val-Gly-NH2) was prepared at a concentration of 80 µg/200 µl in sterile phosphate buffered saline (PBS). An emulsion of DADLE (Tyr-D-Ala-Gly-Phe-D-Leu-enkephalin) was also prepared at a concentration of 80 µg/200 µl in sterile PBS. Male BALB/c HSD mice were treated by intraperitoneal injections according to the following protocol. Control mice (n = 7) received only LPS/GAL (280 µl) at 6.5 h. Deltorphin I SEQ ID NO:1 treated mice (n = 15) received injections of 4 mg/kg deltorphin I SEQ ID NO:1 at 0 h, 2 h, 4 h, 6 h and 7.5 h and received an LPS/GAL injection at 6.5 h. DADLE treated mice (n = 15) received 4 mg/kg DADLE at 0 h, 2 h, 4 h, 6 h and 7.5 h and received an LPS/GAL injection at 6.5 h.
Both control and treated mice were monitored at 15 h, 20 h, 40 h and 65 h after the last injection. TABLE

Setting [1] is: n = 15, 4 mg/kg intraperitoneal at 0 h, 2 h, 4 h, 6 h and 7.5 h, LPS/GAL at 6.5 h, 15 h after the last injection.
The mark [2] stands for this setting: n = 15, 4 mg/kg intraperitoneal at 0 h, 2 h, 4 h, 6 h and 7.5 h, LPS/GAL at 6.5 h, 20 h after the last injection.
Setting [3] is: n = 15, 4 mg/kg intraperitoneal at 0 h, 2 h, 4 h, 6 h and 7.5 h, LPS/GAL at 6.5 h, 40 h after the last injection.
Where [4] appears, read: n = 15, 4 mg/kg intraperitoneal at 0 h, 2 h, 4 h, 6 h and 7.5 h, LPS/GAL at 6.5 h, 65 h after the last injection.

Regarding “Tyr-D-Ala-Gly-Phe-D-Leu-enkephalin [DADLE]”, the survival time entry (mice made septic by LPS/GAL treatment, compared to mice receiving LPS/GAL only) was “not as striking”. Under setting [1], the “SURVIVAL 15 Hours (number of mice)” value turned out to be 3 and the “SURVIVAL 15 Hours (percent)” value is listed as 20%. Besides, under setting [2], the “SURVIVAL 20 Hours (number of mice)” value was found to be 3 and the “SURVIVAL 20 Hours (percent)” value stood at 20%. Under setting [3], the “SURVIVAL 40 Hours (number of mice)” value is on record as 3 and the “SURVIVAL 40 Hours (percent)” value was determined as 20%. Under setting [4], the “SURVIVAL 65 Hours (number of mice)” value was 3 and the “SURVIVAL 65 Hours (percent)” value turned out to be 20%.
